Data from publication PMC9926489, “Chemical Optimization of Selective Pseudomonas aeruginosa LasB Elastase Inhibitors and Their Impact on LasB-Mediated Activation of IL-1β in Cellular and Animal Infection Models” (ACS Infectious Diseases, 2023).
Converted amounts (≈) assume the structure as drawn.

Columns and labels:
[1] = Thermodynamic solubility in PBS (pH 7.4); format: physicochemical; settings: aqueous buffer, thermodynamic from solid
[2] = target: T1, LasB (P. aeruginosa PAO1 culture supernatant) (Pseudomonas aeruginosa, UniProt P14756); assay: Elastin Congo Red (ECR) assay, elastin hydrolysis by dialyzed PAO1 culture supernatant; format: biochemical; settings: 25 μM inhibitor
T1 construct: The mature LasB protein is a 33 kDa metalloprotease, which is secreted from P. aeruginosa; endogenous in cells; host or cells: P. aeruginosa PAO1 culture supernatant, filtered and dialyzed
Text: (§1) This was chosen as the starting point for a medicinal chemistry-driven lead optimization program aiming to improve potency and solubility whilst retaining selectivity against host metalloenzymes. All synthesized compounds were initially assessed in a fluorimetric assay measuring hydrolysis of a fluorogenic substrate Abz-Ala-Gly-Leu-Ala-4-nitrobenzylamide (Abz-AGLA-Nba) by purified LasB and IC50 values determined (Tables 1 and 2). Inhibition of elastin hydrolytic activity was confirmed using an orthogonal assay measuring hydrolysis of Elastin Congo Red (ECR) complex by LasB prepared directly from a P. aeruginosa culture supernatant (Tables 1 and 2). […] Aqueous solubility was determined for most compounds (Tables 1 and 2).
Inhibition of elastin hydrolysis by native LasB, secreted in P. aeruginosa culture supernatants, was measured using the Elastin Congo Red (ECR) assay. Culture supernatants from P. aeruginosa strain PAO1, grown in LB medium at 37 °C for 24 h, were filtered and dialyzed against 50 mM Tris-HCl pH 7.4, 2.5 mM CaCl2 solution at 4 °C and supplemented with 0.01%Triton X-100, 10 mg/mL ECR (Sigma) and 25 μM inhibitor compounds. The reaction mixture was incubated for 16 h at 37 °C with shaking before centrifugation and recovery of the supernatant and measurement of solubilized congo red by absorbance (OD495) using an EnSight multimode plate reader (PerkinElmer).

purified LasB = target: T2, purified LasB (Pseudomonas aeruginosa, UniProt P14756); assay: LasB inhibition, fluorimetric Abz-AGLA-Nba hydrolysis assay with purified LasB; format: biochemical
T2 construct: The mature LasB protein is a 33 kDa metalloprotease, which is secreted from P. aeruginosa; host or cells: P. aeruginosa PAO1 (native secretion, culture supernatant)
Text: as §1
Native LasB protein was purified from culture supernatants of P. aeruginosa strain PAO1 (Charles River Laboratories, U.K.). Briefly, the sample was concentrated by ultrafiltration and the protein was purified by chromatography using an anion exchange (pH 8.5) step followed by gel filtration. This procedure yielded an enzyme preparation (0.8 mg/mL) of >98% purity. The enzyme was stored at −80 °C.
LasB inhibition assays were performed using purified LasB enzyme (1 ng/well) for compound screening or using culture supernatants (prepared as described in the ECR assay) for testing LasB variants. Hydrolysis of the fluorogenic peptide substrate 2-aminobenzoyl-Ala-Gly-Leu-Ala-4-nitrobenzylamide (Abz-AGLA-Nba; Peptide International) in 50 mM Tris-HCl (pH 7.4), supplemented with 2.5 mM CaCl2 was followed using an Envision microplate reader (PerkinElmer) at 315 nm excitation and 430 nm emission. For screening of lead compounds, assays were performed in the presence of 0.01% Triton X-100 with a range of inhibitor concentrations from 0.003 to 3.2 μM. IC50 values were determined from Hill plots using Dotmatics Studies ELN software. For the mechanism of inhibition studies, hydrolysis rates were measured in the presence of variable concentrations of substrate and inhibitor, and the inhibition constant (Ki) was determined using Dixon plot analysis.[31]

[3] = target: T3, secreted LasB in P. aeruginosa PAO1-infected THP-1 macrophages (Pseudomonas aeruginosa, UniProt P14756); assay: LasB activity (Sub115 hydrolysis) in supernatants of P. aeruginosa-infected THP-1 macrophages; format: cell-based; settings: infected THP-1 cells, 5 μM
T3 construct: The mature LasB protein is a 33 kDa metalloprotease, which is secreted from P. aeruginosa; endogenous in cells; host or cells: P. aeruginosa PAO1 infecting human THP-1 macrophages (MOI 10:1); supernatant after 2 h
Description: (§2) Further to showing in vitro inhibition of LasB-mediated pro-IL-1β proteolysis, experiments were performed to determine the effect of compounds 12 and 16 on IL-1β activation and functionality in human macrophage cell cultures infected with P. aeruginosa PAO1, or an isogenic lasB deletion mutant thereof (ΔlasB). In these experiments, the levels of LasB activity in culture supernatants were measured via hydrolysis of the Sub115 fluorescent peptide, while the effect of LasB activity on IL-1β activation (functionality) was measured using a luciferase reporter cell line sensitive to IL-1β induction (Figure 3).
Human THP-1 macrophages were cultured by conventional methods then, pre-infection, culture media were replaced by RPMI lacking phenol red and antibiotics. Compounds VX-765 (caspase-1 inhibitor, developed by Vertex) and/or LasB inhibitors were added, immediately followed by inoculation with P. aeruginosa PAO1 or an isogenic lasB deletion mutant (ΔlasB), previously grown in Luria broth to late exponential phase (OD600 = 1.2) then washed and diluted in PBS, at a multiplicity of infection (MOI) of 10 to 1. After 2 h post-infection, 50 μL aliquots of supernatant were removed and used to quantitate both LasB activity and IL-1β functionality. To determine LasB activity, 50 μL of supernatant was added to Sub115 IL-1β peptide and hydrolysis of Sub115 was monitored spectrophotometrically with excitation at 355 nm and emission at 450 nm, as described above. Results were expressed as relative fluorescence units (RFU).
In the first variation, experimental infections were performed with P. aeruginosa PAO1 and ΔlasB bacteria incubated with varying quantities of inhibitor at final concentrations ranging from 0.5 to 8 μM. In the second, cells were treated and infected in the same manner and also treated with 5 μM VX-765 to provide a control for IL-1β activation by the inflammasome pathway.

IL-1β activation = IL-1β activation in P. aeruginosa-infected THP-1 macrophages (HEK IL-1R-lux reporter assay); format: cell-based, human; settings: infected THP-1 cells, 5 μM
Description: as §2
Human THP-1 macrophages were cultured by conventional methods then, pre-infection, culture media were replaced by RPMI lacking phenol red and antibiotics. […] After 2 h post-infection, 50 μL aliquots of supernatant were removed and used to quantitate both LasB activity and IL-1β functionality. To determine LasB activity, 50 μL of supernatant was added to Sub115 IL-1β peptide and hydrolysis of Sub115 was monitored spectrophotometrically with excitation at 355 nm and emission at 450 nm, as described above. Results were expressed as relative fluorescence units (RFU).
To determine IL-1β functionality, generation of an IL-1 signal was quantified by adding 50 μL of supernatant to HEK IL-1R-lux reporter cells cultured in RPMI supplemented with 5% heat-inactivated FBS, 200 μg/mL penicillin/streptomycin, 200 μg/mL hygromycin, 100 μg/mL zeomycin, and 0.5 μg/mL puromycin. No bacteria survived in this antibiotic condition; 18 h post-treatment, IL-1β-dependent luciferase induction was assayed by luminescence measured with D-luciferin substrate (Steady-Luc, Biotium) on a multimode reader (PerkinElmer) and expressed as relative luminescence units (RU), as previously described.[16]
In the first variation, experimental infections were performed with P. aeruginosa PAO1 and ΔlasB bacteria incubated with varying quantities of inhibitor at final concentrations ranging from 0.5 to 8 μM. […]

T2 sequence (P14756 198-498): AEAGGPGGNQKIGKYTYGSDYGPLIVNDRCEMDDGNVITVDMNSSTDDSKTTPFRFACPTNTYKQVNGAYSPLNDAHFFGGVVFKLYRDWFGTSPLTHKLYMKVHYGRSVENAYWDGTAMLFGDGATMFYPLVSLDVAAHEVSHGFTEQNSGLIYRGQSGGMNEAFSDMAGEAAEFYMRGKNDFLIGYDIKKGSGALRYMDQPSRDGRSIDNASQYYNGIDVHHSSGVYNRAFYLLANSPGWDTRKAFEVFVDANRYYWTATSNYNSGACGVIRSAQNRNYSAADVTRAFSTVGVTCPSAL
T1 sequence (P14756 198-498): as above
T3 sequence (P14756 198-498): as above

Structure (SMILES) | solubility [1] [µg/mL] | Elastin hydrolysis @ 25 μM (% inh) [2] [% inh] | IC50 (purified LasB) [µM] | effect on LasB activity [3] | effect on IL-1β activation (IL-1β activation)
COc1cc2sc(CNC(=O)C3(CC(=O)O)Cc4cc(F)c(F)cc4C3)nc2cc1OCC1CC[N+](C)(C)CC1 [Compound 14] | 17800 | 72 | 0.09 | – | –
CCO[C@@H]1OC(=O)C[C@@H]1NC(=O)[C@@H]1CCCN1C(=O)[C@@H](NC(=O)c1ccc(N)c(Cl)c1)C(C)(C)C [VX-765, reference compound] | – | – | – | no effect | reduced IL-1β activation
COc1ccc2sc(CNC(=O)C3(CC(=O)O)Cc4ccccc4C3)nc2c1 [Compound 3] | – | 64 | 0.15 | – | –
C[N+]1(C)CCN(c2ccc3nc(CNC(=O)C4(CC(=O)O)Cc5ccccc5C4)sc3c2)CC1 [Compound 8] | 18700 | 33 | 1.35 | – | –
C[N+](C)(C)CCOc1ccc2sc(CNC(=O)C3(CC(=O)O)Cc4ccccc4C3)nc2c1 [Compound 9] | 18100 | 40 | 0.82 | – | –
COc1cc2sc(CNC(=O)C3(CC(=O)O)Cc4ccccc4C3)nc2cc1OCCCN(C)C [Compound 11] | – | 69 | 0.08 | – | –
CN(C)CCOc1ccc2sc(CNC(=O)C3(CC(=O)O)Cc4ccccc4C3)nc2c1 [Compound 7] | 4200 (≈ 9.26 mM) | 42 | 0.67 | – | –
COc1cc2nc(CNC(=O)C3(CC(=O)O)Cc4ccccc4C3)sc2cc1OC [Compound 4] | 2000 (≈ 4.69 mM) | 82 | 0.02 | – | –
O=C(O)CC1(C(=O)NCc2nc3ccccc3s2)Cc2cc(F)c(F)cc2C1 [Compound 10] | 600 (≈ 1.49 mM) | 66 | 0.14 | – | –
O=C(O)CC1(C(=O)NCc2nc3cc(Cl)ccc3s2)Cc2ccccc2C1 [Compound 2] | – | 58 | 0.35 | – | –
O=C(O)CC1(C(=O)NCc2nc3cc4c(cc3s2)OCO4)Cc2ccccc2C1 [Compound 5] | 2000 (≈ 4.87 mM) | 75 | 0.12 | – | –
COc1cc2sc(CNC(=O)C3(CC(=O)O)Cc4ccccc4C3)nc2cc1OCCC[N+](C)(CCO)CCO [Compound 15] | 17600 | 69 | 0.19 | – | –
CN1CCN(c2ccc3nc(CNC(=O)C4(CC(=O)O)Cc5ccccc5C4)sc3c2)CC1 [Compound 6] | 3400 (≈ 7.32 mM) | 39 | 1.57 | – | –
O=C(O)CC1(C(=O)NCc2nc3ccccc3s2)Cc2ccccc2C1 [Compound 1] | 580 (≈ 1.58 mM) | 69 | 0.41 | – | –
COc1cc2sc(CNC(=O)C3(CC(=O)O)Cc4ccccc4C3)nc2cc1OCC1CC[N+](C)(C)CC1 [Compound 13] | 15800 | 66 | 0.13 | – | –
